In patent US20250114338A1, “TETRAHYDRO-PYRIDO[3,4-b]INDOLE ESTROGEN RECEPTOR MODULATORS AND USES THEREOF” (Genentech, Inc., priority 2014, published 2025):

These compounds were tested against estrogen receptor alpha (ESR1) in MCF7 breast cancer cells (Homo sapiens (Human), UniProt P03372) (assay: Breast Cancer Cell ERa High Content Fluorescence Imaging Degradation Assay (Example 901)). Conditions: 4 hours, plateau of maximal effect, 0% = DMSO, 100% change = 5 nM Fulvestrant.
Type: cell-based
Protocol: Where more than one name is associated with a Formula I compound or intermediate, the chemical structure shall define the compound. […] Cell plates were incubated at 37° C., for 4 hours. Fixation and permeabilization were carried out using a Biotek EL406 plate washer and dispenser as follows. […] Well contents were aspirated and washed 3 times with 100 μL/well of PBS. […] Samples were incubated for 2 hours at room temperature. […] Samples were incubated for 2 hours at room temperature. […] Quantitative fluorescence imaging of ESR1 was carried out using a Cellomics Arrayscan V (Thermo). […] Channel 1 (DNA stain) was used to define the nuclear region (Circ). […] The “Robust Fit” method was used to define the inflexion point of curve (EC50) and the plateau of the maximal effect (Sinf).

Chain of estrogen receptor alpha (ESR1) in MCF7 breast cancer cells (P03372 whole entry): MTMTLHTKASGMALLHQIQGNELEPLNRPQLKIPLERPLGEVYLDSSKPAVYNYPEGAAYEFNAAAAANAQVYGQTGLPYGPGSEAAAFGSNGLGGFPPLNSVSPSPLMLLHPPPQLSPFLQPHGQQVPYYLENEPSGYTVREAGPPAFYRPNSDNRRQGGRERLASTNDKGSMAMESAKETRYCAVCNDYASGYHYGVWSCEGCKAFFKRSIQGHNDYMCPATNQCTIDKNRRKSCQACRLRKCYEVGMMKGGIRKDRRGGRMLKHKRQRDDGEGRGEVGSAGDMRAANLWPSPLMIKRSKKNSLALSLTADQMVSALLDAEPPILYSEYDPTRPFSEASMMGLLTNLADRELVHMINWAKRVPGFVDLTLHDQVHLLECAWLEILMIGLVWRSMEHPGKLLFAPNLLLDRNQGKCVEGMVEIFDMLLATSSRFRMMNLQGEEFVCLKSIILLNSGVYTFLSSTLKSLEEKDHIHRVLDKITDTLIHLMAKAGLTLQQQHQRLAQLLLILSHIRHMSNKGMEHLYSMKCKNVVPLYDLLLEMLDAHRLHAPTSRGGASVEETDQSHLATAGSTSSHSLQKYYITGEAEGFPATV

SMILES	ER-alpha MCF7 HCS Sinf (%)
C[C@@H]1Cc2c([nH]c3ccccc23)[C@@H](c2c(F)cc(OCCN3CC[C@@H](CF)C3)cc2F)N1CC(C)(C)F [Example 109, (1R,3R)-1-(2,6-difluoro-4-(2-((R)-3-(fluoromethyl)pyrrolidin-1-yl)ethoxy)phenyl)-2-(2-fluoro-2-methylpropyl)-3-methyl-2,3,4,9-tetrahydro-1H-pyrido[3,4-b]indole]	−86.5
C[C@@H]1Cc2c([nH]c3ccccc23)[C@@H](c2c(F)cc(OCCN3CC(CF)C3)cc2F)N1CC1CCC1 [Example 113, (1R,3R)-2-(cyclobutylmethyl)-1-(2,6-difluoro-4-(2-(3-(fluoromethyl)azetidin-1-yl)ethoxy)phenyl)-3-methyl-2,3,4,9-tetrahydro-1H-pyrido[3,4-b]indole]	−94.8
CCCN1CC(Oc2cc(F)c([C@@H]3c4[nH]c5ccccc5c4C[C@@H](C)N3CC(C)(C)F)c(F)c2)C1 [Example 107, (1R,3R)-1-(2,6-difluoro-4-((1-propylazetidin-3-yl)oxy)phenyl)-2-(2-fluoro-2-methylpropyl)-3-methyl-2,3,4,9-tetrahydro-1H-pyrido[3,4-b]indole]	−97.6
C[C@@H](CO)CN1[C@H](c2c(F)cc(OCCN3CC(CF)C3)cc2F)c2[nH]c3ccccc3c2C[C@H]1C [Example 123, (R)-3-((1R,3R)-1-(2,6-difluoro-4-(2-(3-(fluoromethyl)azetidin-1-yl)ethoxy)phenyl)-3-methyl-3,4-dihydro-1H-pyrido[3,4-b]indol-2(9H)-yl)-2-methylpropan-1-ol]	−96.1
C[C@@H]1Cc2c([nH]c3ccccc23)[C@@H](c2c(F)cc(OCCN3CC(C(F)F)C3)cc2F)N1CC(C)(C)F [Example 105, (1R,3R)-1-(4-(2-(3-(difluoromethyl)azetidin-1-yl)ethoxy)-2,6-difluorophenyl)-2-(2-fluoro-2-methylpropyl)-3-methyl-2,3,4,9-tetrahydro-1H-pyrido[3,4-b]indole]	−94
CC(C)C(=O)N1[C@H](c2c(F)cc(OCCN3CC(CF)C3)cc2F)c2[nH]c3ccccc3c2C[C@H]1C [Example 103, 1-((1R,3R)-1-(2,6-difluoro-4-(2-(3-(fluoromethyl)azetidin-1-yl)ethoxy)phenyl)-3-methyl-3,4-dihydro-1H-pyrido[3,4-b]indol-2(9H)-yl)-2-methylpropan-1-one]	−91.8
C[C@@H]1Cc2c([nH]c3ccccc23)[C@@H](c2c(F)cc(OCCN3CC(CF)C3)cc2F)N1CC1COC1 [Example 115, (1R,3R)-1-(2,6-difluoro-4-(2-(3-(fluoromethyl)azetidin-1-yl)ethoxy)phenyl)-3-methyl-2-(oxetan-3-ylmethyl)-2,3,4,9-tetrahydro-1H-pyrido[3,4-b]indole]	−95.5
C[C@@H]1Cc2c([nH]c3ccccc23)[C@@H](c2c(F)cc(OCCN3CC(CF)C3)cc2F)N1C(=O)C(C)(C)F [Example 104, 1-((1R,3R)-1-(2,6-difluoro-4-(2-(3-(fluoromethyl)azetidin-1-yl)ethoxy)phenyl)-3-methyl-3,4-dihydro-1H-pyrido[3,4-b]indol-2(9H)-yl)-2-fluoro-2-methylpropan-1-one]	−95.4
C[C@@H]1Cc2c([nH]c3ccccc23)[C@@H](c2c(F)cc(OC3CN(CCCCl)C3)cc2F)N1CC(C)(C)F [Example 106, (1R,3R)-1-(4-((1-(3-chloropropyl)azetidin-3-yl)oxy)-2,6-difluorophenyl)-2-(2-fluoro-2-methylpropyl)-3-methyl-2,3,4,9-tetrahydro-1H-pyrido[3,4-b]indole]	−90.4
C[C@@H]1Cc2c([nH]c3ccccc23)[C@@H](c2c(F)cc(OCCN3CCCCC3)cc2F)N1CC(C)(C)F [Example 118, (1R,3R)-1-(2,6-difluoro-4-(2-(piperidin-1-yl)ethoxy)phenyl)-2-(2-fluoro-2-methylpropyl)-3-methyl-2,3,4,9-tetrahydro-1H-pyrido[3,4-b]indole]	−72.2
C[C@@H]1Cc2c([nH]c3ccccc23)[C@@H](c2c(F)cc(OC[C@H](C)N3CC[C@@H](CF)C3)cc2F)N1CC(C)(C)F [Example 108, (1R,3R)-1-(2,6-difluoro-4-((S)-2-((R)-3-(fluoromethyl)pyrrolidin-1-yl)propoxy)phenyl)-2-(2-fluoro-2-methylpropyl)-3-methyl-2,3,4,9-tetrahydro-1H-pyrido[3,4-b]indole]	−79.3
C[C@@H]1Cc2c([nH]c3ccccc23)[C@@H](c2c(F)cc(OCCN3CC(CO)C3)cc2F)N1CC(C)(C)F [Example 119, (1-(2-(3,5-difluoro-4-((1R,3R)-2-(2-fluoro-2-methylpropyl)-3-methyl-2,3,4,9-tetrahydro-1H-pyrido[3,4-b]indol-1-yl)phenoxy)ethyl)azetidin-3-yl)methanol]	−71.3
CC(=O)N1[C@H](c2c(F)cc(OCCN3CC(CF)C3)cc2F)c2[nH]c3ccccc3c2C[C@H]1C [Example 121, 1-((1R,3R)-1-(2,6-difluoro-4-(2-(3-(fluoromethyl)azetidin-1-yl)ethoxy)phenyl)-3-methyl-3,4-dihydro-1H-pyrido[3,4-b]indol-2(9H)-yl)ethanone]	−91
C[C@@H]1Cc2c([nH]c3ccccc23)[C@@H](c2c(F)cc(OCCN3CCCC3)cc2F)N1CC(C)(C)F [Example 117, (1R,3R)-1-(2,6-difluoro-4-(2-(pyrrolidin-1-yl)ethoxy)phenyl)-2-(2-fluoro-2-methylpropyl)-3-methyl-2,3,4,9-tetrahydro-1H-pyrido[3,4-b]indole]	−71.7
C[C@@H]1Cc2c([nH]c3ccccc23)[C@@H](c2c(F)cc(OCCN3CC(CF)C3)cc2F)N1S(C)(=O)=O [Example 126, (1R,3R)-1-(2,6-difluoro-4-(2-(3-(fluoromethyl)azetidin-1-yl)ethoxy)phenyl)-3-methyl-2-(methylsulfonyl)-2,3,4,9-tetrahydro-1H-pyrido[3,4-b]indole]	−94.4

The compounds below were run on ER-alpha MCF7 (assay: ER-alpha MCF7 HCS EC50; stated as measured by in vitro cell proliferation assays of Examples 902 and 903). Conditions: Homo sapiens, MCF7, MCF7 cells; Table 1.
Type: cell-based
Method in brief: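 MCF7 cells seeded 1000-2000 cells/well for 16 h, then treated with nine-point 1:2 DMSO dilution series in quadruplicate at 37 °C, 5% CO2 for 4 days. Viable cells quantified by CellTiter-Glo ATP luminescence; EC50 calculated. Controls: fulvestrant at final 100 nM, DMSO 0.2% v/v.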

SMILES	EC50 [nM]
C[C@@H]1Cc2c([nH]c3ccccc23)[C@@H](c2c(F)cc(OCCN3CC(CF)C3)cc2F)N1CC1CCC1 [Example 113, (1R,3R)-2-(cyclobutylmethyl)-1-(2,6-difluoro-4-(2-(3-(fluoromethyl)azetidin-1-yl)ethoxy)phenyl)-3-methyl-2,3,4,9-tetrahydro-1H-pyrido[3,4-b]indole]	6.18
C[C@@H](CO)CN1[C@H](c2c(F)cc(OCCN3CC(CF)C3)cc2F)c2[nH]c3ccccc3c2C[C@H]1C [Example 123, (R)-3-((1R,3R)-1-(2,6-difluoro-4-(2-(3-(fluoromethyl)azetidin-1-yl)ethoxy)phenyl)-3-methyl-3,4-dihydro-1H-pyrido[3,4-b]indol-2(9H)-yl)-2-methylpropan-1-ol]	1.04
C[C@@H]1Cc2c([nH]c3ccccc23)[C@@H](c2c(F)cc(OCCN3CC(CF)C3)cc2F)N1CC1COC1 [Example 115, (1R,3R)-1-(2,6-difluoro-4-(2-(3-(fluoromethyl)azetidin-1-yl)ethoxy)phenyl)-3-methyl-2-(oxetan-3-ylmethyl)-2,3,4,9-tetrahydro-1H-pyrido[3,4-b]indole]	23.1

Same assay, conditions: Homo sapiens, MCF7, MCF7 cells; Table 2

SMILES	EC50 [nM]
CCN1CC(Oc2cc(F)c([C@@H]3c4[nH]c5ccccc5c4C[C@@H](C)N3CC(C)(C)F)c(F)c2)C1 [Example 162, (1R,3R)-1-[4-(1-ethylazetidin-3-yl)oxy-2,6-difluoro-phenyl]-2-(2-fluoro-2-methyl-propyl)-3-methyl-1,3,4,9-tetrahydropyrido[3,4-b]indole]	0.0528
C[C@@H]1Cc2c([nH]c3ccccc23)[C@@H](c2ccc(NC3CN(CCCF)C3)cc2)N1C[C@](C)(F)CO [Example 293, (S)-2-fluoro-3-((1R,3R)-1-(4-((1-(3-fluoropropyl)azetidin-3-yl)amino)phenyl)-3-methyl-1,3,4,9-tetrahydro-2H-pyrido[3,4-b]indol-2-yl)-2-methylpropan-1-ol]	0.15
C[C@@H]1CCN(CCOc2cc(F)c([C@@H]3c4[nH]c5ccccc5c4C[C@@H](C)N3CC(C)(C)F)c(F)c2)C1 [Example 141, (1R,3R)-1-(2,6-difluoro-4-(2-((R)-3-methylpyrrolidin-1-yl)ethoxy)phenyl)-2-(2-fluoro-2-methylpropyl)-3-methyl-2,3,4,9-tetrahydro-1H-pyrido[3,4-b]indole]	0.151
C[C@@H]1Cc2c([nH]c3ccccc23)[C@@H](c2c(F)cc(NCCN3CC(CF)C3)cc2F)N1CC(C)(F)CO (stereo partly drawn) [Example 320, 3-((1R,3R)-1-(2,6-difluoro-4-((2-(3-(fluoromethyl)azetidin-1-yl)ethyl)amino)phenyl)-3-methyl-1,3,4,9-tetrahydro-2H-pyrido[3,4-b]indol-2-yl)-2-fluoro-2-methylpropan-1-ol]	0.27
C[C@@H]1Cc2c([nH]c3cc(F)ccc23)[C@@H](c2c(F)cc(OCCN3CC(CF)C3)cc2F)N1CC(C)(C)F [Example 240, (1R,3R)-1-(2,6-difluoro-4-(2-(3-(fluoromethyl)azetidin-1-yl)ethoxy)phenyl)-7-fluoro-2-(2-fluoro-2-methylpropyl)-3-methyl-2,3,4,9-tetrahydro-1H-pyrido[3,4-b]indole]	0.261
CCCCCN1CC(Oc2cc(F)c([C@@H]3c4[nH]c5ccccc5c4C[C@@H](C)N3CC(C)(C)F)c(F)c2)C1 [Example 163, (1R,3R)-1-[2,6-difluoro-4-(1-pentylazetidin-3-yl)oxy-phenyl]-2-(2-fluoro-2-methyl-propyl)-3-methyl-1,3,4,9-tetrahydropyrido[3,4-b]indole]	0.457
C[C@@H]1Cc2c([nH]c3cc(F)ccc23)[C@@H](c2c(F)cc(NC3CN(CCCF)C3)cc2F)N1C[C@@](C)(F)CO [Example 413, (R)-3-((1R,3R)-1-(2,6-difluoro-4-((1-(3-fluoropropyl)azetidin-3-yl)amino)phenyl)-7-fluoro-3-methyl-3,4-dihydro-1H-pyrido[3,4-b]indol-2(9H)-yl)-2-fluoro-2-methylpropan-1-ol]	0.018

Same assay, conditions: Homo sapiens; MCF7 cells; Table 1

SMILES	EC50 [nM]
CC(C)C(=O)N1[C@H](c2c(F)cc(OCCN3CC(CF)C3)cc2F)c2[nH]c3ccccc3c2C[C@H]1C [Example 103, 1-((1R,3R)-1-(2,6-difluoro-4-(2-(3-(fluoromethyl)azetidin-1-yl)ethoxy)phenyl)-3-methyl-3,4-dihydro-1H-pyrido[3,4-b]indol-2(9H)-yl)-2-methylpropan-1-one]	0.11
